Experimental findings from article PMC13095444, “Discovery of RGS2-FBXO44 interaction inhibitors using a cell-based NanoBit assay” (Molecular Pharmacology, 2025) are described below.

This assay addresses T1, RGS2 (Homo sapiens, UniProt P41220).
T1 construct: Because both full-length RGS2 and FBXO44 are extremely difficult to express as recombinant proteins, we opted for a cell-based method; expressed in transfected cells; host or cells: HEK-293T, transient transfection
T1 sequence (P41220 1-211): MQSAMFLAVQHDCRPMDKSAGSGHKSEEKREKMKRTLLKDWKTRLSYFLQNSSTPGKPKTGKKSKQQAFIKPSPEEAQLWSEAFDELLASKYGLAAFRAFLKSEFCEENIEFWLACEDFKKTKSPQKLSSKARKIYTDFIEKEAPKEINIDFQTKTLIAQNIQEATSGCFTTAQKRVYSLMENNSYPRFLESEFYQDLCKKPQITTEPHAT
Description: Cellular thermal shift assay (CETSA), RGS2-HA. The format is binding. To be noted: 100 μM overnight (16–18 hours); gradient 40–60 °C; vs DMSO. Here is the method:
The cells in 100 mm dishes were harvested by trypsination in reduced serum media and transferred to 15 mL conical tubes. The cells were centrifuged at 300 × g for 3 minutes. Media was removed, and the cell pellet was washed with 10 mL of PBS. The cells were then resuspended in 500 μL of PBS and aliquoted into polymerase chain reaction (PCR) tubes. The cells were then heated in a PCR gradient (40–60 °C) for 3 minutes and then transferred to a 25 °C PCR block for 3 minutes. Following this, cells were immediately flash-frozen using liquid nitrogen. The cells were freeze-thawed 3 times to lyse the cells and then spun down at 20,000 × g for 20 minutes. The supernatant was then added to sample buffer and heated for 5 minutes at 95 °C before SDS-PAGE and western blot analysis.
We next assessed whether the action of compound 10 to inhibit the RGS2-FBXO44 interaction is through direct binding to either protein. […] The cells were lysed and analyzed by western blot to determine melting temperatures (Tm). […] We also assessed the effect of compound 10 on the Tm for RGS4, which is closely related to RGS2 and also subject to proteasomal degradation, however, independent of FBXO44 ([Lee et al, 2005]; [Sjögren et al, 2015]).

Molecules are shown by their SMILES.

Consider `CCC1CCCCN1S(=O)(=O)c1cc(Br)ccc1OC` (stereo not shown) [Compound 10], for which the “Increase in the Tm for RGS2” value worked out at 2.4 °C.
